Results on 49 substances are retold here after paper PMC12808100, “The non-catalytic DNA polymerase ε subunit is an NPF motif recognition protein” (Nature Communications, 2025).

The target of test [1] is His6-avi-MBP-tagged POLE2. As to the kind of experiment: Single-point nHU-MS with recombinant His6-avi-MBP-POLE2 bait, Jurkat extract. Type of test: binding, human. The settings on record: for BI / log2FC / pKapp: bait av-His6-MBP-tagged full-length POLE2. From the text:
So far, our study only focused on a few hand-picked NPF motifs and studied them as short synthetic peptides. However, many other proteins may be present in the proteome that could bind to POLE2 and their putative NPF motifs are embedded in their natural structures that can greatly affect their binding properties. To investigate interactions between POLE2 and intact, full length proteins proteome-wide, we used nHU-MS experiments with recombinant His6-avi-MBP-tagged POLE2 as bait and purified His6-avi-MBP as a control. Even though we are aware that this recombinant POLE2 may bind to NPF motifs with a somewhat altered affinity, we assumed that this would affect all NPF motif-mediated interactions equally, allowing an unbiased affinity ranking of all identified partners. Single point nHU measurements were performed at 26 μM POLE2 concentration and the recovered supernatant was measured by label free proteomic MS measurements (Fig. 3A, Supplementary Figs. 8A, 9, Supplementary Data 1).
Single-point nHU experiments with protein baits were carried out nearly identically with two key modifications. First, the resin saturation step was carried out by mixing 50 μl streptavidin resin with 0.5−1 ml 50 μM biotinylated protein solution and the mixture was incubated for 1.5 h at 4 °C with constant agitation. Second, instead of using estimated bait concentrations, we measured it experimentally. An extra aliquot of resin stock was prepared alongside the nHU samples that were identically processed that were used to eluate the immobilized proteins under harsh conditions, in order to experimentally quantify the Cbait by using densitometry of Coomassie stained SDS-PAGE that included a protein calibration series. For this, 50 μl bait-saturated resin aliquots were mixed with 200 μl 4x Laemmli Sample Buffer (120 mM Tris-HCl pH 7, 8% SDS, 100 mM DTT, 32% glycerol, 0.004% bromphenol blue, 1% β-mercaptoethanol), instead of cell extract. After 15 min incubation at 95 °C, these samples were analyzed by SDS-PAGE using protein calibration standard, made from recombinant MBP. Densitometry was carried out after Coomassie staining on raw Tif images by using Fiji ImageJ 1.53c and experimental bait concentration were determined by adjusting for molecular weight differences between MBP and MBP-POLE2 constructs.
Samples were digested overnight at 37 °C.

The next test relates to POLE. Description: Titration nHU, Western blot, endogenous POLE in Jurkat extract. Type of test: binding, human. The settings on record: titration nHU with peptide bait, Western blot. An excerpt: To identify the partners of NPF motifs, we used the native holdup (nHU) assay that was recently developed by our team (Fig. 1B). The holdup approach has been extensively used to determine equilibrium dissociation constants of transient interactions mediated by PDZ and SH3 domains, 14-3-3, and human papilloma virus E6 proteins, and even nucleic acid-protein interactions[7],[30]–[35]. In the nHU experiments, a purified bait molecule, or a control compound, is immobilized on a resin at high concentration (typically 10 μM, or higher) and these resin stocks are subsequently mixed with dilute cell extracts. After a relatively long incubation, i.e., 2 h at 4 °C, the liquid phase is separated by centrifugation. This liquid phase contains the unbound prey molecules at near binding equilibrium that can be quantified using selective and quantitative analytical approaches, such as mass spectrometry. Therefore, proteins that interact with the bait molecule will appear to be depleted in the solvent phase and by measuring its relative concentration compared to the control nHU experiment, the degree of binding (θ) can be determined that can be converted to apparent steady-state dissociation constants, according to:1 θ=1−Ifree/Itot=Cbait/Cbait+Kapp where Itot and Ifree are the measured total and bait-depleted equilibrium mass spectrometry total ion intensities of prey proteins, Cbait is the bait molecule concentration and Kapp is the apparent dissociation constant.
Jurkat E6.1 cells (ECACC #88042803, RRID: CVCL_0367) were grown in RPMI (Gibco) medium completed with 10% FBS (Gibco BRL) and 40 μg/ml gentamicin (Gibco/Life Technology). To prepare total cell extracts, Jurkat cells were seeded onto T-175 flasks and grew until 3 × 10^6 cells/ml confluency. Cells were collected by 1000 g x 5 min centrifugation, washed with PBS and then lysed in ice-cold lysis buffer (Hepes-KOH pH 7.5 50 mM, NaCl 150 mM, Triton X-100 1%, cOmplete EDTA-free protease inhibitor cocktail 5x, TCEP 5 mM, glycerol 10%).
Cell suspensions were sonicated 4×20 sec with 1 sec long pulse on ice, then incubated rotating at 4 °C for 30 min. The lysates were centrifuged at 12,000 rpm 4 °C for 20 min and supernatant was kept. Total protein concentration was measured by standard Bradford method (Bio-Rad Protein Assay Dye Reagent #5000006) using a BSA calibration curve (MP Biomedicals #160069, diluted in lysis buffer) on a Bio-Rad SmartSpec 3000 spectrophotometer instrument.
Titration holdup experiments were carried out as described above using 25 μl saturated resins prepared. Briefly, we mixed control, or bait-saturated resins at various proportions by keeping the total resin amount and resin-analyte ratio constant during the experiment (for 25 μl we used 100 μl cell extract as analyte). In titration experiments with protein baits, bait concentration was determined as described above for the saturated resin stocks. Experiments were carried out at 4 °C for 2 h and recovered supernatants were subjected to western blot or dot blot analysis.
For Western blot, samples were mixed with 4x Laemmli Sample Buffer in 3:1 ratio. Equal amounts of samples were loaded on 6-10% acrylamide-gels (generally 16 μg). Transfer was done into PVDF membranes using a Trans-Blot Turbo Transfer System and Trans-Blot Turbo RTA Transfer Kit (BioRad, #1704275). For Dot blot, nHU samples were directly loaded on Nitrocellulose membranes using 48 Sample vacuum manifold (Cleaver Scientific) following the manufacturer’s recommendations.
After 1 h of blocking in 5% milk, membranes were incubated overnight at 4 °C with primary antibodies in 5% milk-TBS-Tween.
On the technique in general: A western blot detects proteins with antibodies after separation by electrophoresis.

[2] abbreviates: significant apparent affinity of endogenous prey protein for POLE2 bait, single-point nHU-MS, Figure S11.
Where [3] appears, read: non-zero for significant partners, MS6_Varjosalo.

Consider AGL, for which the pKapp_sign in test [1] (setting [2]) turned out to be 4.38.

Regarding ARLRH [AKNA], the pKapp_sign in test [1] (setting [2]) is 4.257. For ASVD [CPSF4], the pKapp_sign in test [1] (setting [2]) is given as 4.068. Still for that read-out and setting: in the case of CRIPT it was 4.909. For “DEGFK [ACACA, endogenous full length prey protein]”, in test [1] (MS6_Varjosalo), the BI is 0.2013, the log2FC was -0.3242 and the pKapp is reported as 3.986. In test [1] (setting [3]), the pKapp_sign was 3.986. Further, in test [1] (setting [2]), the pKapp_sign came to 3.986. Take KDDY [DNAJC10]: the pKapp_sign in test [1] (setting [2]) stood at 4.21. The same measure, in the same setting: in the case of KPKKPLTSSS [MAPRE1] it was 4.964; in that of KPTSTYSLSS [VIPAS39], 4.13. On to LSVD [LEF1], for which, in test [1] (setting [2]), the pKapp_sign is given as 4.471. As for MIOS, the pKapp_sign in test [1] (setting [2]) worked out at 4.5333. On to “NPFA [WDR59, endogenous full length prey protein]”, for which the pKapp_sign in test [1] (setting [2]) is on record as 4.457. On the same count and under the same terms, the value for “NPFI [DNAJA3, endogenous full length prey protein]” was 4.13; that for “NPFK [CCDC134, endogenous full length prey protein]” was 4.219; that for “NPFQ [MAPK1IP1L, endogenous full length prey protein]” was 4.047.

For the substance “NPFQ [SSBP2, endogenous full length prey protein]”, the pKapp_sign in test [1] (setting [2]) worked out at 4.583. On the same count and under the same terms, in the case of “NPFT [NOSIP, endogenous full length prey protein]” it was 4.058; in that of “NSVD [PLEKHA5, endogenous full length prey protein]”, 4.548; in that of PAAST [NUP58], 4.1. As for PPSSKVSSHS [CNTRL], the pKapp_sign in test [1] (setting [2]) turned out to be 4.363. On to “PSASG [NUP214, endogenous full length prey protein]”, for which, in test [1] (MS6_Varjosalo), the BI was found to be 0.2012, the log2FC is on record as -0.3242 and the pKapp was found to be 3.986. Besides, in test [1] (setting [3]), the pKapp_sign was 3.986. The pKapp_sign in test [1] (setting [2]) came to 3.986. Consider PSASM [RFWD3], for which, in test [1] (setting [2]), the pKapp_sign is given as 4.618.

On to PSASR [NUP188], for which the pKapp_sign in test [1] (setting [2]) is 4.034. “PSASS [ERCC6L, endogenous full length prey protein]”: in test [1] (setting [2]), the pKapp_sign amounted to 4.421.

As for “PSASS [TTF2, endogenous full length prey protein]”, in test [1] (setting [2]), the pKapp_sign worked out at 4.771. The same measure, in the same setting: in the case of “PSAST [EPN2, endogenous full length prey protein]” it was 4.531; in that of PSPST [EXO1], 4.499; in that of PSSST [GIGYF2], 4.1436.

As for “PSTST [UBR5, endogenous full length prey protein]”, in test [1] (MS6_Varjosalo), the BI is reported as 0.2095, the log2FC is recorded as -0.3392 and the pKapp is 4.008. In addition, the pKapp_sign in test [1] (setting [3]) is 4.008. For the same substance, the pKapp_sign in test [1] (setting [2]) is listed as 4.008. Take PSVST [ZMYM1]: the pKapp_sign in test [1] (setting [2]) is 4.45. Same read-out and setting: the value for “PVGGND [USP9X, endogenous full length prey protein]” was 4.835; that for PVLGNI [SSBP3] was 4.288. With “PYCR1: endogenous full length prey protein”, the log2FC in test [1] (MS6_Varjosalo) is listed as -0.3412. In addition, the pKapp_sign in test [1] (setting [2]) stood at 4.011. Take QDLGNI [CTSA]: the pKapp_sign in test [1] (setting [2]) is 4.815. Same read-out and setting: in the case of QPLRH [OIP5] it was 4.225. RARA [INKA1]: in test [1] (setting [2]), the pKapp_sign is listed as 5.687. The same measure, in the same setting: in the case of RHRA [FIP1L1] it was 4.277. “RRIVSDGEDEDDSFKDTSSINPFNTSLFQFSSVKQFDAS [ERCC6L 1024-1062, biotinylated NPF motif peptide of ERCC6L]”: the “binding to endogenous POLE” value with POLE (listed as NPF motif of ERCC6L) is on record as “No apparent binding”. On to RSRSVS [ZNRF1], for which the pKapp_sign in test [1] (setting [2]) was found to be 4.487.

As to RSVD [PLEKHA7], the pKapp_sign in test [1] (setting [2]) is 4.312. The same measure, in the same setting: in the case of SLGEI [GYG1] it was 4.703.

As to SLRED [INPP5K], the pKapp_sign in test [1] (setting [2]) turned out to be 4.539. On to “SRPMVIQESKSLLRNPFEAIRPGS [CLSPN 1223-1246, biotinylated NPF motif peptide of Claspin]”, for which the entries for the “binding to endogenous POLE” value in the test with POLE (listed as CLSPN) and in the test on POLE (listed as Claspin) were “unable to bind to endogenous POLE” and “could not interact with POLE”, respectively. On to SSNSQ [PNPT1], for which the pKapp_sign in test [1] (setting [2]) stood at 4.014.

Regarding SSQSY [EIF4E2], in test [1] (setting [2]), the pKapp_sign was found to be 4.429. As for TNSTSD [PIKFYVE], in test [1] (setting [2]), the pKapp_sign is recorded as 4.132.

Take TRIM25: the pKapp_sign in test [1] (setting [2]) came to 4.096. In the case of TRIM27, the pKapp_sign in test [1] (setting [2]) is given as 4.707. On the same count and under the same terms, the value for “TSPTSD [NUMB, endogenous full length prey protein]” was 4.316. On the same count and under the same terms, the value for TTAATSV [SEC23IP] was 4.243.
